Like-named read-outs stand apart in the source and are kept apart here.
How the values were obtained:
[1] = Replicon Assay (Example B), Alamar Blue cytotoxicity CC50; assay type: cell-based; conditions: human, lower value of the cell pair
How it was run: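 Huh-7 cells carrying a luciferase/neo HCV subgenomic replicon (NS3–NS5b) were treated with semilog compound dilutions in triplicate (0.1% DMSO) for 72 h at 37 °C. Viability came from Alamar blue resazurin-to-resorufin fluorescence (535/590 nm) for CC50. EC50 came from Bright-Glo luciferase luminescence as a proxy for HCV RNA.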

full length NS3/4a = full length NS3/4a (Hepatitis C virus genotype 1b (isolate BK) (HCV), UniProt P26663); assay: NS3 Protease Assay (Example A), FRET-based; assay type: biochemical
full length NS3/4a, sequence (P26663 1027-1657): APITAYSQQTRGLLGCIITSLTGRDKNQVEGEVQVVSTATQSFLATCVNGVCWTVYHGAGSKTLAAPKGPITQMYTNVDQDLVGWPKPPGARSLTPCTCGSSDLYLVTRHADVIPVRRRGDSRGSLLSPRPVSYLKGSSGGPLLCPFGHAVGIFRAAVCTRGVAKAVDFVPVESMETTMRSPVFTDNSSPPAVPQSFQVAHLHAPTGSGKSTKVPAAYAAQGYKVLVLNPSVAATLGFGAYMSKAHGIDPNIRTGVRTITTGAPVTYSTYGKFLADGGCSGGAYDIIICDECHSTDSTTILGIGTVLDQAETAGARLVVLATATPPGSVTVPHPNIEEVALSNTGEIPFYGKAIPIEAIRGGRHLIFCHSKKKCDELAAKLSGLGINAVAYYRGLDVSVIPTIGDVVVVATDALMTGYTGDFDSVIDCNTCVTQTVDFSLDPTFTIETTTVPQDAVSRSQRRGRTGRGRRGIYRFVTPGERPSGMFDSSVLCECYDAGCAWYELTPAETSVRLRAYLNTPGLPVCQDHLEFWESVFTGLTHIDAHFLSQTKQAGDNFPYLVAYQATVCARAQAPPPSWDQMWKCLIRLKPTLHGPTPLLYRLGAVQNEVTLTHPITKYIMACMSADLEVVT
How it was run: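 Full-length NS3/4a, made in-house, with an NS4A/B-derived peptide substrate carrying QXL520 quencher and 5-FAMsp fluorophore. Buffer 50 mM Tris pH8, 20 mM DTT, 1% CHAPS, 10% glycerol, 5% DMSO. Fluorescence followed 30 min at room temperature; IC50 from initial rates of replicate curves.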

[2] = system: HCV subgenomic replicon in Huh-7 cells; assay: Replicon Assay (Example B), luciferase readout EC50; assay type: cell-based; conditions: Hepatitis C virus, Huh-7, replicon assay, luciferase readout; upper value of the cell pair; read-out: Assay B EC50
How it was run: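 Huh-7 cells carrying a luciferase-neo HCV subgenomic replicon (NS3–NS5b) were treated with semilog compound dilutions (0.1% DMSO final), in triplicate, for 72 h at 37° C. EC50 came from Bright-Glo luciferase signal as a proxy for replicon RNA; viability was read by Alamar blue.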

[3] = HCV NS3 protease assay, full length NS3/4a, read-out: Assay A IC50 (μM) average
[4] = read-out: IC50 against the protease activity of the full length NS3/4a

Compound | CC50 at 72 h [1] | IC50 (full length NS3/4a; [3]) | IC50 (full length NS3/4a; [4]) | EC50 [2] | inhibition at 0.1 µM (full length NS3/4a; @ 0.1 uM)
CC[C@@H](N[C@@H](C)CC(N)=O)c1ccc(Cl)c(C(=O)c2ccc(N)c(Cl)c2)c1F [Example 234, (3S)-3-{[(1R)-1-{3-[(4-amino-3-chlorophenyl)carbonyl]-4-chloro-2-fluorophenyl}propyl]amino} butanamide] | > 1000 nM | 0.14 µM | < 1 µM | 2.8 nM | –
CC[C@@H](N[C@@H](C)CC(N)=O)c1ccc(Cl)c(C(=O)c2ccc(C#N)c(OC)c2)c1F [Example 235, (3S)-3-{[(1R)-1-{4-chloro-3-[(4-cyano-3-methoxyphenyl)carbonyl]-2-fluorophenyl}propyl]amino} butanamide] | > 1000 nM | 0.13 µM | < 1 µM | 8.8 nM | –
C[C@@H](CC(N)=O)N[C@@H](c1ccc(Cl)c(C(=O)c2ccc(N)cn2)c1F)C1CC1 [Example 237, (3S)-3-{[(R)-{3-[(5-aminopyridin-2-yl)carbonyl]-4-chloro-2-fluorophenyl}(cyclopropyl)methyl]amino}butanamide] | > 1000 nM | 0.31 µM | – | 47 nM | –
C[C@@H](CC(N)=O)N[C@@H](c1ccc(Cl)c(C(=O)c2ccc(C#N)cn2)c1F)C1CC1 [Example 238, (3S)-3-{[(R)-{4-chloro-3-[(5-cyanopyridin-2-yl)carbonyl]-2-fluorophenyl}(cyclopropyl)methyl]amino}butanamide] | > 1000 nM | 0.11 µM | – | 30 nM | –
CC[C@@H](N[C@@H](C)CC(N)=O)c1ccc(Cl)c(C(=O)c2cc(C)c(N)cn2)c1F [Example 239, (3S)-3-{[(1R)-1-{3-[(5-amino-4-methylpyridin-2-yl)carbonyl]-4-chloro-2-fluorophenyl}propyl]amino} butanamide] | > 1000 nM | 0.5 µM | – | 38 nM | –
CC[C@@H](N[C@@H](C)CC(=O)NCCO)c1ccc(Cl)c(C(=O)c2ccc(N)nc2)c1F [Example 242, (3S)-3-{[(1R)-1-{3-[(6-aminopyridin-3-yl)carbonyl]-4-chloro-2-fluorophenyl}propyl]amino}-N-(2-hydroxyethyl)butanamide] | > 1000 nM | 0.49 µM | – | 98 nM | –
CC[C@@H](N[C@@H](C)CC(N)=O)c1ccc(Cl)c(C(=O)c2ccc3c(c2)OCC(=O)N3)c1F [Example 247, (3S)-3-{[(1R)-1-{4-chloro-2-fluoro-3-[(3-oxo-3,4-dihydro-2H-1,4-benzoxazin-7-yl)carbonyl]phenyl}propyl]amino}butanamide] | > 1000 nM | 0.29 µM | < 1 µM | 21 nM | –
CC[C@@H](N[C@@H](C)CC(N)=O)c1ccc(Cl)c(C(=O)c2ccc3c(c2)OCCN3)c1F [Example 249, (3S)-3-{[(1R)-1-{4-chloro-3-[(3,4-dihydro-2H-1,4-benzoxazin-7-yl)carbonyl]-2-fluorophenyl}propyl]amino} butanamide] | > 1000 nM | 0.27 µM | – | 33 nM | –
CC[C@@H](NC(C)(C)CC(N)=O)c1ccc(Cl)c(C(=O)c2ccc(N)nc2)c1F [Example 250, 3-{[(1R)-1-{3-[(6-aminopyridin-3-yl)carbonyl]-4-chloro-2-fluorophenyl}propyl]amino}-3-methylbutanamide] | > 1000 nM | 0.095 µM | – | 29 nM | –
CC[C@H](NC(C)(C)CC(N)=O)c1ccc(Cl)c(C(=O)c2ccc(N)nc2)c1F [Example 251, 3-{[(1S)-1-{3-[(6-aminopyridin-3-yl)carbonyl]-4-chloro-2-fluorophenyl}propyl]amino}-3-methylbutanamide] | > 1000 nM | 0.3 µM | – | > 1000 nM | –
CC[C@@H](N[C@@H](C)CC(N)=O)c1ccc(OC)c(C(=O)c2ccc(N)nc2)c1F [Example 252, (3S)-3-{[(1R)-1-{3-[(6-aminopyridin-3-yl)carbonyl]-2-fluoro-4-methoxyphenyl}propyl]amino}butanamide] | > 1000 nM | 0.18 µM | – | 130 nM | –
C[C@@H](CC(N)=O)N[C@@H](c1ccc(Cl)c(C(=O)c2ccc(N)c(C#N)c2)c1F)C1CC1 [Example 255, (3S)-3-{[(R)-{3-[(4-amino-3-cyanophenyl)carbonyl]-4-chloro-2-fluorophenyl}(cyclopropyl)methyl]amino}butanamide] | > 1000 nM | 0.24 µM | – | 27 nM | –
C=CC[C@@H](N[C@@H](C)CC(N)=O)c1ccc(Cl)c(C(=O)c2ccc(N)nc2)c1F [Example 256, (3S)-3-{[(1R)-1-{3-[(6-aminopyridin-3-yl)carbonyl]-4-chloro-2-fluorophenyl}but-3-en-1-yl]amino} butanamide] | > 1000 nM | 0.47 µM | – | 46 nM | –
CCC[C@@H](N[C@@H](C)CC(N)=O)c1ccc(Cl)c(C(=O)c2ccc(N)nc2)c1F [Example 258, (3S)-3-{[(1R)-1-{3-[(6-aminopyridin-3-yl)carbonyl]-4-chloro-2-fluorophenyl}butyl]amino} butanamide] | > 1000 nM | 0.28 µM | < 1 µM | 20 nM | –
CC[C@@H](N[C@@H](C)CC(N)=O)c1ccc(Cl)c(C(=O)c2ccc(N)c(C)c2)c1F [Example 259, (3S)-3-{[(1R)-1-{3-[(4-amino-3-methylphenyl)carbonyl]-4-chloro-2-fluorophenyl}propyl]amino} butanamide] | > 1000 nM | 0.11 µM | < 1 µM | 21 nM | –
C[C@@H](CC(N)=O)N[C@@H](c1ccc(Cl)c(C(=O)c2ccc(N)c(Cl)c2)c1F)C1CC1 [Example 261, (3S)-3-{[(R)-{3-[(4-amino-3-chlorophenyl)carbonyl]-4-chloro-2-fluorophenyl}(cyclopropyl)methyl]amino}butanamide] | > 1000 nM | 0.16 µM | < 1 µM | 9.1 nM | –
Cc1cc(C(=O)c2c(Cl)ccc([C@H](N[C@@H](C)CC(N)=O)C3CC3)c2F)ccc1N [Example 262, (3S)-3-{[(R)-{3-[(4-amino-3-methylphenyl)carbonyl]-4-chloro-2-fluorophenyl}-(cyclopropyl)-methyl]-amino}butanamide] | > 1000 nM | – | – | 8.5 nM | 32%
C[C@@H](CC(N)=O)N[C@@H](c1ccc(Cl)c(C(=O)c2ccc(CO)cc2)c1F)C1CC1 [Example 263, (3S)-3-{[(R)-(4-chloro-2-fluoro-3-{[4-(hydroxyl-methyl)phenyl]-carbonyl}phenyl)(cyclo-propyl)-methyl]amino}-butanamide] | 79000 nM | 0.11 µM | – | 4 nM | –
[2H]C([2H])([2H])C([2H])([2H])[C@@H](N[C@@H](C)CC(N)=O)c1ccc(Cl)c(C(=O)c2ccc(N)nc2)c1F [Example 265, (3S)-3-{[(1R)-1-{3-[(6-aminopyridin-3-yl)carbonyl]-4-chloro-2-fluorophenyl}(2,2,3,3,3-deutero)propyl]amino}-butanamide] | > 3000 nM | 0.13 µM | – | 25 nM | –
[2H]C([2H])([2H])C([2H])([2H])[C@@H](N[C@@H](C)CC(N)=O)c1ccc(Cl)c(C(=O)c2ccc(N)c(Cl)c2)c1F [Example 267, (3S)-3-{[(1R)-1-{3-[(4-amino-3-chlorophenyl)carbonyl]-4-chloro-2-fluorophenyl}(2,2,3,3,3-deutero)propyl]amino}-butanamide] | > 3000 nM | 0.085 µM | < 1 µM | 5 nM | –

— patent US9145354B2, “Pharmaceutical compounds” (priority 2011, dated 2015)
